# According to ChEMBL document CHEMBL1155117, “Cyclobranol: a substrate for C25-methyl sterol side chains and potent mechanism-based inactivator of plant sterol methyltransferase” (Bioorg Med Chem Lett, 2008):
# Experiments:
# [1] = system: Glycine max; assay: Activity of soybean sterol C24-methyltransferase 1
# [2] = Inhibition of sunflower sterol C24-methyltransferase 1; design: species or system Helianthus annuus
# [3] = Inhibition of soybean sterol C24-methyltransferase 1; design: species or system Glycine max
# [4] = system: Glycine max; assay: Ratio of Kcat to Kinact for soybean sterol C24-methyltransferase 1
Structure (SMILES),Km [1] [µM],kcat [1] [s⁻¹],Ki [2] [µM],Ki [3] [µM],Ratio [4]
CC(C)=CCC[C@@H](C)[C@H]1CC[C@@]2(C)[C@@H]3CC[C@H]4C(C)(C)[C@@H](O)CC[C@@]45C[C@@]35CC[C@]12C,30,0.001,,,
CC(C)=C(C)CC[C@@H](C)[C@H]1CC[C@@]2(C)[C@@H]3CC[C@H]4C(C)(C)[C@@H](O)CC[C@@]45C[C@@]35CC[C@]12C [CYCLOBRANOL],37,0.0001,100,25,0.04
